From ChEMBL document CHEMBL1201862, “PubChem BioAssay data set” (2004)
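48-hour exposure; five concentrations; linearly interpolated endpoints. The concentration for 50% growth inhibition is given as GI50.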 Calls of active or inactive are those of the source. Cut-off read from the data, not from the text of the source: active = GI50 up to about 1.1 µM and inactive = higher.

Assays:
Assay in all cases: DTP human tumour cell line panel, 48 h
HOP-92 = tested on: HOP-92
RXF 393 = tested on: RXF 393
OVCAR-4 = tested on: OVCAR-4
OVCAR-8 = tested on: OVCAR-8
M14 = tested on: M14
SW-620 = tested on: SW-620
U-251 = tested on: U-251
CAKI-1 = tested on: CAKI-1
SK-MEL-5 = tested on: SK-MEL-5
MOLT-4 = tested on: MOLT-4
UACC-62 = tested on: UACC-62
LOX IMVI = tested on: LOX IMVI
ACHN = tested on: ACHN
COLO 205 = tested on: COLO 205
SF-268 = tested on: SF-268
NCI-H522 = tested on: NCI-H522
SK-MEL-2 = tested on: SK-MEL-2
Malme-3M = tested on: Malme-3M

Structure (SMILES)	GI50 (HOP-92)	GI50 (RXF 393)	GI50 (OVCAR-4)	GI50 (OVCAR-8)	GI50 (M14)	GI50 (SW-620)	GI50 (U-251)	GI50 (CAKI-1)	GI50 (SK-MEL-5)	GI50 (MOLT-4)	GI50 (UACC-62)	GI50 (LOX IMVI)	GI50 (ACHN)	GI50 (COLO 205)	GI50 (SF-268)	GI50 (NCI-H522)	GI50 (SK-MEL-2)	GI50 (Malme-3M)
CCOC(=O)NC(=O)c1cn(CCCOC(=O)NCCCCCCNC(=O)OCCCn2cc(C(=O)NC(=O)OCC)c(=O)[nH]c2=O)c(=O)[nH]c1=O	24.3 µM (inactive)	> 10 µM (inactive)	7.4 µM (inactive)	31.3 µM (inactive)	20.4 µM (inactive)	26 µM (inactive)	18.1 µM (inactive)	11.9 µM (inactive)	37.5 µM (inactive)	36.3 µM (inactive)	20.1 µM (inactive)	43.1 µM (inactive)	18.7 µM (inactive)	19.8 µM (inactive)				
COC(=O)[C@H]1C=C[C@@H](C)n2c(=O)c3ccccc3c(=O)n21	> 100 µM (inactive)	> 100 µM (inactive)	> 100 µM (inactive)	> 100 µM (inactive)	> 100 µM (inactive)	> 100 µM (inactive)	> 100 µM (inactive)	> 100 µM (inactive)	> 100 µM (inactive)	> 100 µM (inactive)		> 100 µM (inactive)	> 100 µM (inactive)	> 100 µM (inactive)	> 100 µM (inactive)	> 100 µM (inactive)	> 100 µM (inactive)	> 100 µM (inactive)
Cn1cc(NC(=O)c2cc(NC(=O)CCCCCC(=O)Nc3cc(C(=O)Nc4cc(C(=O)NCCC(=N)N)n(C)c4)n(C)c3)cn2C)cc1C(=O)NCCC(=N)N	> 100 µM (inactive)	> 100 µM (inactive)	> 100 µM (inactive)	> 100 µM (inactive)	> 100 µM (inactive)	> 100 µM (inactive)	> 100 µM (inactive)	> 100 µM (inactive)	51.3 µM (inactive)		64.9 µM (inactive)	46.1 µM (inactive)	> 100 µM (inactive)	> 100 µM (inactive)	> 100 µM (inactive)			9.64 µM (inactive)
Nc1ncnc2c1ncn2C1OC(CSCc2ccc(Cl)cc2)C(O)C1O (stereo not given)	4.18 µM (inactive)	21.2 µM (inactive)	35.6 µM (inactive)	42.7 µM (inactive)	17.1 µM (inactive)	31.8 µM (inactive)	66.2 µM (inactive)	21.5 µM (inactive)	33.8 µM (inactive)	10.7 µM (inactive)	46.9 µM (inactive)	37.3 µM (inactive)	34.9 µM (inactive)	40.4 µM (inactive)	40.1 µM (inactive)		25.5 µM (inactive)	56.9 µM (inactive)
COc1cc2c(c(OC)c1OC)-c1ccc(SC)c(=O)cc1[C@@H](NC(=O)c1cccc([N+](=O)[O-])c1)CC2			13.1 µM (inactive)	0.024 µM (active)	0.0154 µM (active)	0.0276 µM (active)	0.0221 µM (active)	0.049 µM (active)	0.0179 µM (active)	0.0202 µM (active)	0.0292 µM (active)		0.0489 µM (active)	0.0168 µM (active)	0.0214 µM (active)	< 0.01 µM (active)		0.0161 µM (active)
CNC1=Nc2ccc(Cl)cc2C(OP(=O)(N2CCOCC2)N2CCOCC2)=NC1		> 100 µM (inactive)	> 100 µM (inactive)	> 100 µM (inactive)	> 100 µM (inactive)	> 100 µM (inactive)	> 100 µM (inactive)	> 100 µM (inactive)	> 100 µM (inactive)	> 100 µM (inactive)	> 100 µM (inactive)	> 100 µM (inactive)	> 100 µM (inactive)			26.5 µM (inactive)	> 100 µM (inactive)	> 100 µM (inactive)
O=C1c2ccccc2C(=O)N1C/C=N/NS(=O)(=O)c1cccc([N+](=O)[O-])c1		> 100 µM (inactive)	> 100 µM (inactive)	> 100 µM (inactive)	> 100 µM (inactive)	> 100 µM (inactive)	> 100 µM (inactive)	> 100 µM (inactive)	> 100 µM (inactive)	> 100 µM (inactive)	> 100 µM (inactive)	> 100 µM (inactive)	> 100 µM (inactive)	> 100 µM (inactive)	> 100 µM (inactive)	> 100 µM (inactive)	> 100 µM (inactive)	> 100 µM (inactive)
CN(C)CC/C(=N\Nc1ccc(Cl)cc1Cl)c1ccccc1		7.96 µM (inactive)	> 10 µM (inactive)	17.7 µM (inactive)	15.5 µM (inactive)	16 µM (inactive)	12.4 µM (inactive)		14.6 µM (inactive)	5.73 µM (inactive)	14.6 µM (inactive)	14.8 µM (inactive)	15 µM (inactive)	15.1 µM (inactive)		> 10 µM (inactive)	14.5 µM (inactive)	23.3 µM (inactive)
CC(=O)/C=C/c1cccc(N=S)c1	> 100 µM (inactive)	17.6 µM (inactive)	52.2 µM (inactive)	12.2 µM (inactive)	6.71 µM (inactive)	2.44 µM (inactive)	6.64 µM (inactive)	> 50.9 µM (inactive)	23.4 µM (inactive)	> 40.1 µM (inactive)	21.6 µM (inactive)	2.39 µM (inactive)	> 38.4 µM (inactive)	20.1 µM (inactive)	> 30.3 µM (inactive)	18.6 µM (inactive)		> 73.8 µM (inactive)
COC(CC1(OC)OC(=O)C=C1N)OC (stereo not given)	> 100 µM (inactive)		> 100 µM (inactive)	> 100 µM (inactive)	> 100 µM (inactive)	> 100 µM (inactive)	> 100 µM (inactive)		> 100 µM (inactive)	> 100 µM (inactive)	> 100 µM (inactive)	> 100 µM (inactive)	> 100 µM (inactive)	> 100 µM (inactive)	> 100 µM (inactive)	> 100 µM (inactive)	> 100 µM (inactive)	> 100 µM (inactive)
CCC(=O)c1c(NOC2OC(COC(C)=O)C(OC(C)=O)C(OC(C)=O)C2OC(C)=O)nc(OC)n(C)c1=O (stereo not given)		> 100 µM (inactive)	> 100 µM (inactive)	> 100 µM (inactive)	> 100 µM (inactive)	> 100 µM (inactive)	> 100 µM (inactive)		> 100 µM (inactive)	> 100 µM (inactive)	> 100 µM (inactive)	> 100 µM (inactive)	> 100 µM (inactive)	> 100 µM (inactive)	> 100 µM (inactive)	> 100 µM (inactive)	> 100 µM (inactive)	
Cc1ccc(NC(=O)CCc2n[nH]c(=S)o2)cc1	> 100 µM (inactive)	> 100 µM (inactive)	> 100 µM (inactive)	> 100 µM (inactive)	> 100 µM (inactive)	> 100 µM (inactive)	> 100 µM (inactive)	> 100 µM (inactive)	> 100 µM (inactive)	> 100 µM (inactive)	> 86.3 µM (inactive)	> 100 µM (inactive)	> 100 µM (inactive)	> 100 µM (inactive)	> 100 µM (inactive)	> 100 µM (inactive)		> 100 µM (inactive)
CC(=O)Nc1ccc(-c2nnc(SCC(=O)Nc3ccccc3C)o2)cc1	39.4 µM (inactive)	65.3 µM (inactive)	> 100 µM (inactive)	> 100 µM (inactive)	64.9 µM (inactive)	> 100 µM (inactive)	66.7 µM (inactive)		93.1 µM (inactive)	51.9 µM (inactive)	> 100 µM (inactive)	63 µM (inactive)	> 100 µM (inactive)	> 100 µM (inactive)	> 100 µM (inactive)	58.3 µM (inactive)	> 100 µM (inactive)	> 100 µM (inactive)
N#C/C(=C/c1cccc2ccccc12)C(=O)c1ccccc1			> 100 µM (inactive)	33 µM (inactive)	16.9 µM (inactive)	16.8 µM (inactive)	19 µM (inactive)	23.9 µM (inactive)	> 10 µM (inactive)	14.7 µM (inactive)	18.3 µM (inactive)	19.5 µM (inactive)	> 10 µM (inactive)			21.5 µM (inactive)	18.9 µM (inactive)	21.5 µM (inactive)
CCCCCCC(O)C/C=C/CCCCCC/C(C(=O)OC)=C(/O)C(=O)OCC (stereo not given)	> 100 µM (inactive)		> 100 µM (inactive)	> 100 µM (inactive)	> 100 µM (inactive)	> 100 µM (inactive)	> 100 µM (inactive)	> 100 µM (inactive)	> 100 µM (inactive)	72.8 µM (inactive)	> 100 µM (inactive)	> 100 µM (inactive)	> 100 µM (inactive)	> 100 µM (inactive)	> 100 µM (inactive)	85.1 µM (inactive)	> 100 µM (inactive)	> 100 µM (inactive)
CC(=O)CC(=O)CCC(=O)Nc1cccc(C(F)(F)F)c1	> 100 µM (inactive)		> 100 µM (inactive)	> 100 µM (inactive)	> 100 µM (inactive)	> 100 µM (inactive)	> 100 µM (inactive)	> 100 µM (inactive)	> 100 µM (inactive)	> 100 µM (inactive)	> 100 µM (inactive)	> 100 µM (inactive)	> 100 µM (inactive)	> 100 µM (inactive)	> 100 µM (inactive)	> 100 µM (inactive)	> 100 µM (inactive)	> 100 µM (inactive)
CCN(CC)c1ccc(/N=N/c2ccc(-c3nc4cccnc4s3)cc2)cc1	> 100 µM (inactive)		43.3 µM (inactive)	> 100 µM (inactive)	> 100 µM (inactive)	> 100 µM (inactive)	> 100 µM (inactive)	> 100 µM (inactive)	> 100 µM (inactive)	> 100 µM (inactive)	97.9 µM (inactive)		> 100 µM (inactive)	> 100 µM (inactive)	57.5 µM (inactive)	> 100 µM (inactive)	> 100 µM (inactive)	> 100 µM (inactive)
